Assay results taken from a compilation of properties of binary mixtures (doi:10.1016/j.molliq.2020.112489).

Experiment: xn = mol fraction of the nth substance listed
Conditions: 101 kPa

## CC[n+]1ccn(C)c1.O=C([O-])C(F)(F)C(F)(F)C(F)(F)C(F)(F)F + O
298.15 K, x1 = 0.0264
  viscosity: 2.88 mPa·s
298.15 K, x1 = 0.0311
  viscosity: 3.36 mPa·s
298.15 K, x1 = 0.0364
  viscosity: 3.86 mPa·s
298.15 K, x1 = 0.0428
  viscosity: 4.62 mPa·s
298.15 K, x1 = 0.0496
  viscosity: 5.3 mPa·s
298.15 K, x1 = 0.0581
  viscosity: 5.96 mPa·s
298.15 K, x1 = 0.067
  viscosity: 6.84 mPa·s
298.15 K, x1 = 0.0727
  viscosity: 7.23 mPa·s
298.15 K, x1 = 0.0857
  viscosity: 8.38 mPa·s
298.15 K, x1 = 0.133
  viscosity: 12.96 mPa·s
298.15 K, x1 = 0.1458
  viscosity: 13.63 mPa·s
298.15 K, x1 = 0.1625
  viscosity: 14.99 mPa·s
298.15 K, x1 = 0.1788
  viscosity: 16.31 mPa·s
298.15 K, x1 = 0.201
  viscosity: 17.94 mPa·s
298.15 K, x1 = 0.262
  viscosity: 22.43 mPa·s
298.15 K, x1 = 0.3007
  viscosity: 25.2 mPa·s
298.15 K, x1 = 0.7012
  viscosity: 73.6 mPa·s
298.15 K, x1 = 1
  viscosity: 107.5 mPa·s
308.15 K, x1 = 0.0222
  viscosity: 2.016 mPa·s
308.15 K, x1 = 0.0264
  viscosity: 2.221 mPa·s
308.15 K, x1 = 0.0364
  viscosity: 2.91 mPa·s
308.15 K, x1 = 0.0496
  viscosity: 3.92 mPa·s
308.15 K, x1 = 0.0581
  viscosity: 4.37 mPa·s
308.15 K, x1 = 0.067
  viscosity: 4.93 mPa·s
308.15 K, x1 = 0.0727
  viscosity: 5.22 mPa·s
308.15 K, x1 = 0.1009
  viscosity: 7.34 mPa·s
308.15 K, x1 = 0.133
  viscosity: 9.04 mPa·s
308.15 K, x1 = 0.1625
  viscosity: 10.35 mPa·s
308.15 K, x1 = 0.1788
  viscosity: 11.24 mPa·s
308.15 K, x1 = 0.2367
  viscosity: 14.29 mPa·s
308.15 K, x1 = 0.4265
  viscosity: 24.3 mPa·s
308.15 K, x1 = 0.7012
  viscosity: 46.9 mPa·s
308.15 K, x1 = 1
  viscosity: 65.9 mPa·s
318.15 K, x1 = 0.0264
  viscosity: 1.773 mPa·s
318.15 K, x1 = 0.0311
  viscosity: 2.036 mPa·s
318.15 K, x1 = 0.0364
  viscosity: 2.271 mPa·s
318.15 K, x1 = 0.0428
  viscosity: 2.64 mPa·s
318.15 K, x1 = 0.0496
  viscosity: 3.01 mPa·s
318.15 K, x1 = 0.0581
  viscosity: 3.35 mPa·s
318.15 K, x1 = 0.067
  viscosity: 3.7 mPa·s
318.15 K, x1 = 0.0727
  viscosity: 3.93 mPa·s
318.15 K, x1 = 0.0857
  viscosity: 4.5 mPa·s
318.15 K, x1 = 0.1009
  viscosity: 5.4 mPa·s
318.15 K, x1 = 0.133
  viscosity: 6.58 mPa·s
318.15 K, x1 = 0.1788
  viscosity: 8.1 mPa·s
318.15 K, x1 = 0.201
  viscosity: 8.85 mPa·s
318.15 K, x1 = 0.2367
  viscosity: 10.22 mPa·s
318.15 K, x1 = 0.262
  viscosity: 10.88 mPa·s
318.15 K, x1 = 0.3007
  viscosity: 12.16 mPa·s
318.15 K, x1 = 0.4265
  viscosity: 17.06 mPa·s
318.15 K, x1 = 0.7012
  viscosity: 31.8 mPa·s
318.15 K, x1 = 1
  viscosity: 43.1 mPa·s

## Cn1cc[n+](CCO)c1.O=S(=O)([O-])C(F)(F)C(F)(F)C(F)(F)C(F)(F)F + O
298.15 K, x1 = 0.0178
  electrical conductivity: 4.26 S/m
  viscosity: 2.036 mPa·s
298.15 K, x1 = 0.0195
  electrical conductivity: 4.4 S/m
  viscosity: 2.133 mPa·s
298.15 K, x1 = 0.0212
  electrical conductivity: 4.52 S/m
  viscosity: 2.326 mPa·s
298.15 K, x1 = 0.0253
  electrical conductivity: 4.75 S/m
  viscosity: 2.66 mPa·s
298.15 K, x1 = 0.0297
  electrical conductivity: 4.91 S/m
  viscosity: 3.09 mPa·s
298.15 K, x1 = 0.0321
  electrical conductivity: 4.97 S/m
  viscosity: 3.3 mPa·s
298.15 K, x1 = 0.0348
  electrical conductivity: 5 S/m
  viscosity: 3.56 mPa·s
298.15 K, x1 = 0.0376
  electrical conductivity: 5.1 S/m
  viscosity: 3.7 mPa·s
298.15 K, x1 = 0.0405
  electrical conductivity: 5.1 S/m
  viscosity: 4.19 mPa·s
298.15 K, x1 = 0.0438
  electrical conductivity: 5.2 S/m
  viscosity: 4.43 mPa·s
298.15 K, x1 = 0.0474
  electrical conductivity: 5.2 S/m
  viscosity: 4.87 mPa·s
298.15 K, x1 = 0.0551
  electrical conductivity: 5.2 S/m
  viscosity: 5.75 mPa·s
298.15 K, x1 = 0.0644
  electrical conductivity: 5.1 S/m
  viscosity: 6.82 mPa·s
298.15 K, x1 = 0.07
  electrical conductivity: 5.1 S/m
  viscosity: 7.66 mPa·s
298.15 K, x1 = 0.0756
  electrical conductivity: 5 S/m
  viscosity: 8.21 mPa·s
298.15 K, x1 = 0.0824
  electrical conductivity: 4.88 S/m
  viscosity: 9.23 mPa·s
298.15 K, x1 = 0.0899
  electrical conductivity: 4.73 S/m
  viscosity: 10.36 mPa·s
298.15 K, x1 = 0.1075
  electrical conductivity: 4.31 S/m
  viscosity: 12.91 mPa·s
298.15 K, x1 = 0.1178
  electrical conductivity: 4.05 S/m
  viscosity: 14.88 mPa·s
298.15 K, x1 = 0.1302
  electrical conductivity: 3.73 S/m
  viscosity: 16.91 mPa·s
298.15 K, x1 = 0.1441
  electrical conductivity: 3.39 S/m
  viscosity: 19.81 mPa·s
298.15 K, x1 = 0.1621
  electrical conductivity: 2.98 S/m
  viscosity: 23.25 mPa·s
298.15 K, x1 = 0.2068
  electrical conductivity: 2.13 S/m
  viscosity: 32.1 mPa·s
298.15 K, x1 = 0.2329
  electrical conductivity: 1.74 S/m
  viscosity: 38.8 mPa·s
298.15 K, x1 = 0.2751
  electrical conductivity: 1.26 S/m
  viscosity: 50.6 mPa·s
298.15 K, x1 = 0.3277
  electrical conductivity: 0.85 S/m
  viscosity: 63.8 mPa·s
298.15 K, x1 = 0.3954
  electrical conductivity: 0.52 S/m
  viscosity: 87.1 mPa·s
298.15 K, x1 = 0.5075
  electrical conductivity: 0.241 S/m
  viscosity: 133.7 mPa·s
298.15 K, x1 = 1
  electrical conductivity: 0.033 S/m
  viscosity: 832 mPa·s
308.15 K, x1 = 0.0178
  viscosity: 1.632 mPa·s
308.15 K, x1 = 0.0195
  viscosity: 1.689 mPa·s
308.15 K, x1 = 0.0212
  viscosity: 1.847 mPa·s
308.15 K, x1 = 0.0232
  viscosity: 1.972 mPa·s
308.15 K, x1 = 0.0253
  viscosity: 2.104 mPa·s
308.15 K, x1 = 0.0274
  viscosity: 2.2 mPa·s
308.15 K, x1 = 0.0297
  viscosity: 2.42 mPa·s
308.15 K, x1 = 0.0321
  viscosity: 2.6 mPa·s
308.15 K, x1 = 0.0348
  viscosity: 2.78 mPa·s
308.15 K, x1 = 0.0376
  viscosity: 2.87 mPa·s
308.15 K, x1 = 0.0405
  viscosity: 3.25 mPa·s
308.15 K, x1 = 0.0474
  viscosity: 3.73 mPa·s
308.15 K, x1 = 0.0511
  viscosity: 4.07 mPa·s
308.15 K, x1 = 0.0551
  viscosity: 4.36 mPa·s
308.15 K, x1 = 0.0596
  viscosity: 4.76 mPa·s
308.15 K, x1 = 0.0824
  viscosity: 6.8 mPa·s
308.15 K, x1 = 0.0983
  viscosity: 8.34 mPa·s
308.15 K, x1 = 0.1075
  viscosity: 9.29 mPa·s
308.15 K, x1 = 0.1178
  viscosity: 10.63 mPa·s
308.15 K, x1 = 0.1621
  viscosity: 16.05 mPa·s
308.15 K, x1 = 0.1816
  viscosity: 18.72 mPa·s
308.15 K, x1 = 0.2329
  viscosity: 25.7 mPa·s
308.15 K, x1 = 0.2751
  viscosity: 32.8 mPa·s
308.15 K, x1 = 0.3277
  viscosity: 40.6 mPa·s
308.15 K, x1 = 0.5075
  viscosity: 79.6 mPa·s
308.15 K, x1 = 0.6777
  viscosity: 143.5 mPa·s
308.15 K, x1 = 1
  viscosity: 411 mPa·s
318.15 K, x1 = 0.0178
  viscosity: 1.344 mPa·s
318.15 K, x1 = 0.0195
  viscosity: 1.381 mPa·s
318.15 K, x1 = 0.0212
  viscosity: 1.517 mPa·s
318.15 K, x1 = 0.0253
  viscosity: 1.719 mPa·s
318.15 K, x1 = 0.0274
  viscosity: 1.77 mPa·s
318.15 K, x1 = 0.0297
  viscosity: 1.975 mPa·s
318.15 K, x1 = 0.0348
  viscosity: 2.227 mPa·s
318.15 K, x1 = 0.0376
  viscosity: 2.274 mPa·s
318.15 K, x1 = 0.0405
  viscosity: 2.58 mPa·s
318.15 K, x1 = 0.0474
  viscosity: 2.95 mPa·s
318.15 K, x1 = 0.0511
  viscosity: 3.2 mPa·s
318.15 K, x1 = 0.0551
  viscosity: 3.42 mPa·s
318.15 K, x1 = 0.0644
  viscosity: 3.98 mPa·s
318.15 K, x1 = 0.07
  viscosity: 4.42 mPa·s
318.15 K, x1 = 0.0756
  viscosity: 4.67 mPa·s
318.15 K, x1 = 0.0824
  viscosity: 5.16 mPa·s
318.15 K, x1 = 0.0899
  viscosity: 5.75 mPa·s
318.15 K, x1 = 0.1075
  viscosity: 6.93 mPa·s
318.15 K, x1 = 0.1178
  viscosity: 7.86 mPa·s
318.15 K, x1 = 0.1441
  viscosity: 10.06 mPa·s
318.15 K, x1 = 0.1621
  viscosity: 11.56 mPa·s
318.15 K, x1 = 0.1816
  viscosity: 13.38 mPa·s
318.15 K, x1 = 0.2068
  viscosity: 15.23 mPa·s
318.15 K, x1 = 0.2751
  viscosity: 22.44 mPa·s
318.15 K, x1 = 0.3277
  viscosity: 27.4 mPa·s
318.15 K, x1 = 0.3954
  viscosity: 35.4 mPa·s
318.15 K, x1 = 0.5075
  viscosity: 50.5 mPa·s
318.15 K, x1 = 0.6777
  viscosity: 86.8 mPa·s
318.15 K, x1 = 1
  viscosity: 224 mPa·s
